Data published in patent publication US20250296959A1, “B7-H3 TARGETING PEPTIDES AND CONSTRUCTS THEREOF” (Mariana Oncology Inc., priority 2024, published 2025).
Starred links: 1 amine or outer side, 2 acyl side, 3 side chain; linkers in the order of their positions; H or OH if unused. Positions of bridges follow the written chain, without caps; N, C: chain ends. Non-standard residues stand in square brackets, D forms with d. Residues, ends and D or L forms follow the SMILES beside them. Groups on a side chain read outwards from the residue. ξ: configuration not given here. *: point of attachment. X7 = O=C(O)CN1CCN(CC(=O)O)CCN(CC(=O)NCCOCCOCCOCCOCCOCCOCCOCCOCC(=O)*)CCN(CC(=O)O)CC1; Ala(piperidin-4-yl) = O=C([C@H](CC1CCN([*:3])CC1)N[*:1])[*:2]; Phe(3-CH2NH2) = O=C([C@H](Cc1cccc(CN[*:3])c1)N[*:1])[*:2]; DOTA = O=C(O)CN1CCN(CC(=O)O)CCN(CC(=O)*)CCN(CC(=O)O)CC1; Trp(5-F) = N[C@@H](Cc1c[nH]c2ccc(F)cc12)C(=O)O; Pro(cis-4-F) = O=C(O)[C@@H]1C[C@H](F)CN1; Phe(4-F) = N[C@@H](Cc1ccc(F)cc1)C(=O)O; γGlu = O=C(O)[C@H](CCC(=O)[*:2])N[*:1]; 1Nal = N[C@@H](Cc1cccc2ccccc12)C(=O)O; Ala(4-THP) = N[C@@H](CC1CCOCC1)C(=O)O; Val(3-OH) = CC(C)(O)[C@H](N)C(=O)O; 4Pal = N[C@@H](Cc1ccncc1)C(=O)O; PEG4 = NCCOCCOCCOCCOCCC(=O)O; Tle = CC(C)(C)[C@H](N)C(=O)O; hLeu = CC(C)CC[C@H](N)C(=O)O; Nle = CCCC[C@H](N)C(=O)O; PEG1 = NCCOCCC(=O)O; ξP = O=C(O)C1CCCN1

What follows are molecules tested against T1, human 4lg B7-H3 (Homo sapiens, UniProt Q5ZPR3) (assay: Affinity determination by surface plasmon resonance (SPR) to 4Ig B7-H3). Details: SPR KD—25° C., 4Ig B7-H3; 25° C. flow cell temperature.
T1 sequence (Q5ZPR3 29-534): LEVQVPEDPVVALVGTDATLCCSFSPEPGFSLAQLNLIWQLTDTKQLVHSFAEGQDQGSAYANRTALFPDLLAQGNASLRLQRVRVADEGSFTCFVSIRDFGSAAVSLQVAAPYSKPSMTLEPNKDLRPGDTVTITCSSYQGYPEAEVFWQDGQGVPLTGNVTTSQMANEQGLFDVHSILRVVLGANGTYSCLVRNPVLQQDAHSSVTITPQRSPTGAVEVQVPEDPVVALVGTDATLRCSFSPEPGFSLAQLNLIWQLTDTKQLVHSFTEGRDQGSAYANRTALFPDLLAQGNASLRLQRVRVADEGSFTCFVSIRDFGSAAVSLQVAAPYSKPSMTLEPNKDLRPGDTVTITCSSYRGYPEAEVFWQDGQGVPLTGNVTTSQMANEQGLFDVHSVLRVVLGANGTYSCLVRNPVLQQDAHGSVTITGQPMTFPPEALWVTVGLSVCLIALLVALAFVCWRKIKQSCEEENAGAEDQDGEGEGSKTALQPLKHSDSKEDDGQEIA

| Kd [nM] | Compound |
| --- | --- |
| 100 to 300 | CC(C)CC[C@H](NC(=O)CC[C@H](NC(=O)CC[C@H](NC(=O)CC[C@H](NC(=O)CN1CCN(CC(=O)O)CCN(CC(=O)O)CCN(CC(=O)O)CC1)C(=O)O)C(=O)O)C(=O)O)C(=O)N[C@@H](Cc1ccc(F)cc1)C(=O)N[C@H]1CSSC[C@@H](C(=O)N[C@@H](Cc2cccc3ccccc23)C(=O)N[C@@H](Cc2ccccc2)C(=O)N2CCC[C@H]2C(N)=O)NC(=O)[C@H](Cc2ccc(O)cc2)NC(=O)[C@H](C(C)C)NC(=O)[C@H](CC(=O)O)NC(=O)[C@H](CC2CCOCC2)NC(=O)[C@H](CC2CCNCC2)NC(=O)CNC(=O)[C@H](C(C)(C)C)NC1=O [compound 272, DOTA-gE-gE-gE-hLeu-4FPhe-C-Tbg-G-PipAla-ThpA-D-V-Y-C-1Nal-F-Pro-CONH2] ({DOTA-γGlu-γGlu-γGlu}-[hLeu][Phe(4-F)]C[Tle]G[Ala(piperidin-4-yl)][Ala(4-THP)]DVYC[1Nal]FP-NH2; disulfide 3-11) |
| 1 to 10 | COc1ccc(C[C@@H]2NC(=O)[C@H](C(C)C)NC(=O)[C@H](CC(=O)O)NC(=O)[C@H](Cc3ccncc3)NC(=O)[C@H](CCCCNC(=O)CN3CCN(CC(=O)O)CCN(CC(=O)O)CCN(CC(=O)O)CC3)NC(=O)CNC(=O)[C@H](C(C)C)NC(=O)[C@@H](NC(=O)[C@H](Cc3ccc(O)cc3)NC(=O)[C@H](CCC(C)C)NC(C)=O)CSSC[C@@H](C(=O)N[C@@H](Cc3cccc4ccccc34)C(=O)N[C@@H](Cc3ccccc3)C(=O)N3CCCC3C(N)=O)NC2=O)cc1 (stereo partly drawn) [compound 309, Ac-hLeu-Y-C-V-G-Lys(DOTA)-4PyA-D-V-OMeTyr-C-1Nal-F-Pro-CONH2] (Ac-[hLeu]YCVGK(DOTA)[4Pal]DVY(Me)C[1Nal]F[ξP]-NH2; disulfide 3-11) |
| < 1 | CC(=O)N[C@@H](CCC(C)C)C(=O)N[C@@H](Cc1ccc(O)cc1)C(=O)N[C@H]1CSSC[C@@H](C(=O)N[C@@H](Cc2c[nH]c3ccc(F)cc23)C(=O)N[C@@H](Cc2ccccc2)C(=O)N2CCC[C@H]2C(=O)N[C@H](CCCCNC(=O)CN2CCN(CC(=O)O)CCN(CC(=O)O)CCN(CC(=O)O)CC2)C(N)=O)NC(=O)[C@H](Cc2ccc(O)cc2)NC(=O)[C@H](C(C)C)NC(=O)[C@H](CC(=O)O)NC(=O)[C@H](CC2CCOCC2)NC(=O)[C@H](CCCCN)NC(=O)CNC(=O)[C@H](C(C)C)NC1=O [compound 271, Ac-hLeu-Y-C-V-G-K-ThpA-D-V-Y-C-5FW-F-Pro-dLys(DOTA)-CONH2] (Ac-[hLeu]YCVGK[Ala(4-THP)]DVYC[Trp(5-F)]FP[dK](DOTA)-NH2; disulfide 3-11) |
| 10 to 100 | CC(=O)N[C@@H](CCC(C)C)C(=O)N[C@@H](Cc1ccc(O)cc1)C(=O)N[C@H]1CSSC[C@@H](C(=O)N[C@@H](Cc2cccc3ccccc23)C(=O)N[C@@H](Cc2ccccc2)C(=O)N2C[C@@H](F)C[C@H]2C(=O)O)NC(=O)[C@H](Cc2ccc(O)cc2)NC(=O)[C@H](C(C)C)NC(=O)[C@H](CC(=O)O)NC(=O)[C@H](Cc2ccncc2)NC(=O)[C@H](CCCCNC(=O)CN2CCN(CC(=O)O)CCN(CC(=O)O)CCN(CC(=O)O)CC2)NC(=O)CNC(=O)[C@H](C(C)(C)C)NC1=O [compound 263, Ac-hLeu-Y-C-Tbg-G-Lys(DOTA)-4PyA-D-V-Y-C-1Nal-F-cis4FPro-CONH2] (Ac-[hLeu]YC[Tle]GK(DOTA)[4Pal]DVYC[1Nal]F[Pro(cis-4-F)]-OH; disulfide 3-11) |
| 1 to 10 | CCCC[C@@H]1NC(=O)[C@H](CC(=O)O)NC(=O)[C@H](Cc2ccc(O)cc2)NC(=O)[C@H](CCCCN)NC(=O)CNC(=O)[C@H](C(C)C)NC(=O)[C@@H](NC(=O)[C@H](Cc2ccc(O)cc2)NC(=O)[C@H](CCC(C)C)NC(C)=O)CSSC[C@@H](C(=O)N[C@@H](Cc2c[nH]c3ccc(F)cc23)C(=O)N[C@@H](Cc2ccccc2)C(=O)N[C@H](C(=O)N[C@H](CCCCNC(=O)CN2CCN(CC(=O)O)CCN(CC(=O)O)CCN(CC(=O)O)CC2)C(N)=O)[C@@H](C)O)NC(=O)[C@H](Cc2ccc(O)cc2)NC1=O [compound 186, Ac-hLeu-Y-C-V-G-K-Y-D-Nle-Y-C-5FW-F-Thr-dLys(DOTA)-CONH2] (Ac-[hLeu]YCVGKYD[Nle]YC[Trp(5-F)]FT[dK](DOTA)-NH2; disulfide 3-11) |
| 1 to 10 | CC(=O)N[C@@H](CCC(C)C)C(=O)N[C@@H](Cc1ccc(O)cc1)C(=O)N[C@H]1CSSC[C@@H](C(=O)N[C@@H](Cc2cccc3ccccc23)C(=O)N[C@@H](Cc2ccccc2)C(=O)N2CCC[C@H]2C(N)=O)NC(=O)[C@H](Cc2ccc(O)cc2)NC(=O)[C@H](C(C)C)NC(=O)[C@H](CC(=O)O)NC(=O)[C@H](Cc2cccc(CNC(=O)COCCOCCOCCOCCOCCOCCOCCOCCNC(=O)CN3CCN(CC(=O)O)CCN(CC(=O)O)CCN(CC(=O)O)CC3)c2)NC(=O)[C@H](CCCCN)NC(=O)CNC(=O)[C@H](C(C)(C)C)NC1=O [compound 279, Ac-hLeu-Y-C-Tbg-G-K-MAF(PEG8-DOTA)-D-V-Y-C-1Nal-F-Pro-CONH2] (Ac-[hLeu]YC[Tle]GK[Phe(3-CH2NH2)](X7)DVYC[1Nal]FP-NH2; disulfide 3-11) |
| < 1 | CC(=O)N[C@@H](CCC(C)C)C(=O)N[C@@H](Cc1ccc(O)cc1)C(=O)N[C@H]1CSSC[C@@H](C(=O)N[C@@H](Cc2cccc3ccccc23)C(=O)N[C@@H](Cc2ccccc2)C(=O)N2CCC[C@H]2C(=O)N[C@H](CCCCNC(=O)CN2CCN(CC(=O)O)CCN(CC(=O)O)CCN(CC(=O)O)CC2)C(N)=O)NC(=O)[C@H](Cc2ccc(O)cc2)NC(=O)[C@H](C(C)C)NC(=O)[C@H](CC(=O)O)NC(=O)[C@H](Cc2ccc(O)cc2)NC(=O)[C@H](CCCCN)NC(=O)CNC(=O)[C@H](C(C)(C)C)NC1=O [compound 244, Ac-hLeu-Y-C-Tbg-G-K-Y-D-V-Y-C-1Nal-F-Pro-dLys(DOTA)-CONH2] (Ac-[hLeu]YC[Tle]GKYDVYC[1Nal]FP[dK](DOTA)-NH2; disulfide 3-11) |

Same assay, conditions: SPR KD—37° C., 4Ig B7-H3; 37° C. flow cell temperature

| Kd [nM] | Compound |
| --- | --- |
| 1 to 10 | CC(C)CC[C@H](NC(=O)CCOCCNC(=O)[C@H](CCC(=O)O)NC(=O)CN1CCN(CC(=O)O)CCN(CC(=O)O)CCN(CC(=O)O)CC1)C(=O)N[C@@H](Cc1ccc(O)cc1)C(=O)N[C@H]1CSSC[C@@H](C(=O)N[C@@H](Cc2c[nH]c3ccc(F)cc23)C(=O)N[C@@H](Cc2ccccc2)C(=O)N[C@H](C(N)=O)C(C)(C)O)NC(=O)[C@H](Cc2ccc(O)cc2)NC(=O)[C@H](C(C)C)NC(=O)[C@H](CC(=O)O)NC(=O)[C@H](CC2CCOCC2)NC(=O)[C@H](CCCCN)NC(=O)CNC(=O)[C@H](C(C)(C)C)NC1=O [compound 394, DOTA-Glu-PEG1-hLeu-Y-C-Tbg-G-K-ThpA-D-V-Y-C-5FW-F-hydroxyVal-CONH2] ({DOTA}-E[PEG1][hLeu]YC[Tle]GK[Ala(4-THP)]DVYC[Trp(5-F)]F[Val(3-OH)]-NH2; disulfide 5-13) |
| < 1 | CC(=O)N[C@@H](CCC(C)C)C(=O)N[C@@H](Cc1ccc(O)cc1)C(=O)N[C@H]1CSSC[C@@H](C(=O)N[C@@H](Cc2c[nH]c3ccc(F)cc23)C(=O)N[C@@H](Cc2ccccc2)C(=O)N[C@H](C(=O)N[C@H](CCC(=O)O)C(=O)O)C(C)(C)O)NC(=O)[C@H](Cc2ccc(O)cc2)NC(=O)[C@H](C(C)C)NC(=O)[C@H](CC(=O)O)NC(=O)[C@H](CC2CCN(C(=O)CCOCCOCCOCCOCCNC(=O)CN3CCN(CC(=O)O)CCN(CC(=O)O)CCN(CC(=O)O)CC3)CC2)NC(=O)[C@H](CC2CCNCC2)NC(=O)CNC(=O)[C@H](C(C)(C)C)NC1=O [compound 448, Ac-hLeu-Y-C-Tbg-G-PipAla-Pip(PEG4-DOTA)Ala-D-V-Y-C-5FW-F-hydroxyVal-dGlu-COOH] (Ac-[hLeu]YC[Tle]G[Ala(piperidin-4-yl)][Ala(piperidin-4-yl)]([PEG4-DOTA])DVYC[Trp(5-F)]F[Val(3-OH)][dE]-OH; disulfide 3-11) |
